Each structure is given as a SMILES string.

The IC50 is the point on the concentration scale where inhibition reaches its midpoint.

Chain of RIPK1 (Q13546 whole entry): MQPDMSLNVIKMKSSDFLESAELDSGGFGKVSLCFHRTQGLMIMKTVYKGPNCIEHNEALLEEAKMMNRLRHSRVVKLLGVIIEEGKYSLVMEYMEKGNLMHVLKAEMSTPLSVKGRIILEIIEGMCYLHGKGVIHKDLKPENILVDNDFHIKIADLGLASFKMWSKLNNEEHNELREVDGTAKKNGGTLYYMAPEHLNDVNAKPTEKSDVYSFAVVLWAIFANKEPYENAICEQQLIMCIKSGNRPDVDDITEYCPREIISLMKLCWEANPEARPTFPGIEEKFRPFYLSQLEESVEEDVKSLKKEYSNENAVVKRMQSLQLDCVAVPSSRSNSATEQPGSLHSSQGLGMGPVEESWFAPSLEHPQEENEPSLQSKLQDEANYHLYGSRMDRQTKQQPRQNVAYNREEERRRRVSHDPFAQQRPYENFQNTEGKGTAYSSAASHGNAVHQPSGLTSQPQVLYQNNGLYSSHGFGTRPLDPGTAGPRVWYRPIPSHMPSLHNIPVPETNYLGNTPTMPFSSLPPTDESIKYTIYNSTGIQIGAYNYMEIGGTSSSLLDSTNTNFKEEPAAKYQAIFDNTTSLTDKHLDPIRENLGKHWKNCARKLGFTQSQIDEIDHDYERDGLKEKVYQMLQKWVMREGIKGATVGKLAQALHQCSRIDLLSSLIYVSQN

The subject of the first experiment is U937 cells. As to the kind of experiment: Inhibition of TNF-α-induced programmed necrosis of U937 cells (CellTiter-Glo). As to conditions: U-937, human TNF-α + Q-VD-Oph, 48 hours. It counts as cell-based. As to the method: The U937 cell line used in the following test examples was from ATCC, number: CRL-1593.2, batch number: 63479999, culture medium: RPMI-1640+10% FBS.
(§1) The reagents used, suppliers and product numbers of the reagents were as follows: RPMI-1640, Gibco, 11875-093; FBS, Gibco, 10099-141; Trypsin-EDTA, Gibco, 25200-072; PS, Gibco, 15140-122; CellTiter Glo , Progema, G7573; DMSO, VWR AMRESCO, 0231-500ML; TNF-α protein (human, recombinant), Peprotech, 300-01A; Q-VD-Oph, MCE, HY-12305; V-shaped bottom plate, Corning, 3894; 384-well low-flange white flat-bottom microplate, Corning, 3570; RIPK1, Eurofins, 16-022; MOPS, BDH, 441644J; EDTA, Sigma, E5134; Myelin basic protein, Sigma, M1891-25.00 MG; Magnesium acetate, Merck, DU008026; ATP (non-radioactive label), Sigma, A-7699; ATP (radioactive label), Hartmann Analytic, DU008054; Phosphoric acid, Metlab, DU003000; Z-VAD: Shanghai Yuang Chemical Industry, YA02401.
The compounds to be tested were dissolved in DMSO and diluted with DMSO into a series of concentration gradients. 5000 U937 cells/well were seeded in a 384-well white plate. Compounds of corresponding concentrations were added to each well and mixed evenly with the cells. At the same time, human TNF-a and Q-VD-Oph were added to induce programmed necrosis of the cells. The cells were placed at 37° C., 5% CO2 incubator for 48 hours. CellTiter-Glo reagent was used for detection, and the chemiluminescence reading was detected using a microplate reader after sufficient lysis reaction. The test results were calculated using the formula SR (%)=(RLU compound−RLU blank)/(RLU high control−RLU blank)×100%. The survival rate and the final concentration of the corresponding compound were drawn into a curve and fitted using four parameters. Inhibitory IC50 on TNF-α-induced cell necrosis of the compounds were calculated.
For orientation: ATP-based viability assays read luminescence as a measure of living cells.
`C[C@@H](C(F)F)N1CCc2c(nn(Cc3c(F)cccc3F)c2Cl)C1=O` (single isomer, unassigned) [Compound Z9-1]: the IC50 stood at 256 nM. Still for that read-out and setting: the value for `C[C@H](C(F)F)N1CCc2c(nn(Cc3c(F)cccc3F)c2Br)C1=O` (single isomer, unassigned) [Compound Z24-1] was 119 nM; that for `O=C1c2nn(Cc3ccccc3)c(Cl)c2CCN1CC(F)F` [Compound Z1, 2-benzyl-3-chloro-6-(2,2-difluoroethyl)-2,4,5,6-tetrahydro-7H-pyrazolo[3,4-c]pyridine-7-one] was 461 nM; that for `O=C1c2nn(Cc3ccccc3F)c(Cl)c2CCN1CC(F)F` [Compound Z2, 3-chloro-6-(2,2-difluoroethyl)-2-(2-fluorobenzyl)-2,4,5,6-tetrahydro-7H-pyrazolo[3,4-c]pyridin-7-one] was 279 nM. Same read-out and setting: as for `O=C1c2nn(Cc3c(F)cccc3F)c(Cl)c2CCN1CC(F)F` [Compound Z3, 3-chloro-2-(2,6-difluorobenzyl)-6-(2,2-difluoroethyl)-2,4,5,6-tetrahydro-7H-pyrazolo[3,4-c]pyridin-7-one], the figure is 129 nM; as for `N#CCCN1CCc2c(nn(Cc3c(F)cccc3F)c2Cl)C1=O` [Compound Z4, 3-(3-chloro-2-(2,6-difluorobenzyl)-7-oxo-2,4,5,7-tetrahydro-6H-pyrazolo[3,4-c]pyridine-6-yl)propionitrile], 1360 nM; as for `O=C1c2nn(Cc3cc(F)ccc3F)c(Cl)c2CCN1CC(F)F` [Compound Z5, 3-chloro-2-(2,5-difluorobenzyl)-6-(2,2-difluoroethyl)-2,4,5,6-tetrahydro-7H-pyrazolo[3,4-c]pyridin-7-one], 205 nM. Same read-out and setting: as for `O=C1c2nn(Cc3c(F)ccc(F)c3F)c(Cl)c2CCN1CC(F)F` [Compound Z6, 3-chloro-6-(2,2-difluoroethyl)-2-(2,3,6-trifluorobenzyl)-2,4,5,6-tetrahydro-7H-pyrazolo[3,4-c]pyridin-7-one], the figure is 482 nM; as for `N#CCC1(N2CCc3c(nn(Cc4c(F)cccc4F)c3Cl)C2=O)CC1` [Compound Z7, 2-(1-(3-chloro-2-(2,6-difluorobenzyl)-7-oxo-2,4,5,7-tetrahydro-6H-pyrazolo[3,4-c]pyridin-6-yl)cyclopropyl)acetonitrile], 1830 nM; as for `O=C1c2nn(Cc3ccccc3Cl)c(Cl)c2CCN1CC(F)F` [Compound Z8, 3-chloro-2-(2-chlorobenzyl)-6-(2,2-difluoroethyl)-2,4,5,6-tetrahydro-7H-pyrazolo[3,4-c]pyridin-7-one], 253 nM. For the compound `O=C1c2nn(Cc3c(F)cccc3F)c(Cl)c2CCN1C1(C(F)F)CC1` [Compound Z10, 3-chloro-2-(2,6-difluorobenzyl)-6-(1-(difluoromethyl)cyclopropyl)-2,4,5,6-tetrahydro-7H-pyrazolo[3,4-c]pyridin-7-one], the IC50 was determined as 676 nM. On the same count and under the same terms, as for `O=C1c2nn(Cc3c(F)cccc3F)c(Cl)c2CCN1CC1(F)CC1` [Compound Z11, 3-chloro-2-(2,6-difluorobenzyl)-6-((1-fluorocyclopropyl)methyl)-2,4,5,6-tetrahydro-7H-pyrazolo[3,4-c]pyridin-7-one], the figure is 1600 nM; as for `CC(C(F)F)N1CCc2c(nn(Cc3ccccc3OC(F)(F)F)c2Cl)C1=O` (stereo not shown) [Compound Z12, 3-chloro-6-(1,1-difluoropropan-2-yl)-2-(2-(trifluoromethoxy)benzyl)-2,4,5,6-tetrahydro-7H-pyrazolo[3,4-c]pyridin-7-one], 1380 nM; as for `O=C1c2nn(Cc3c(F)cccc3F)c(Cl)c2CCN1C(C(F)F)C1CC1` (stereo not shown) [Compound Z13, 3-chloro-6-(1-cyclopropyl-2,2-difluoroethyl)-2-(2,6-difluorobenzyl)-2,4,5,6-tetrahydro-7H-pyrazolo[3,4-c]pyridin-7-one], 120 nM. For `CC(C(F)F)N1CCc2c(nn(Cc3cc(F)cc(F)c3)c2Cl)C1=O` (stereo not shown) [Compound Z14, 3-chloro-2-(3,5-difluorobenzyl)-6-(1,1-difluoropropan-2-yl)-2,4,5,6-tetrahydro-7H-pyrazolo[3,4-c]pyridin-7-one], the IC50 came to 982 nM. Regarding `CCC(C(F)F)N1CCc2c(nn(Cc3c(F)cccc3F)c2Cl)C1=O` (stereo not shown) [Compound Z15, 3-chloro-2-(2,6-difluorobenzyl)-6-(1,1-difluorobutan-2-yl)-2,4,5,6-tetrahydro-7H-pyrazolo[3,4-c]pyridin-7-one], the IC50 was found to be 127 nM. Still for that read-out and setting: the value for `CC(COc1ccc(C#N)cn1)N1CCc2c(nn(Cc3ccccc3)c2Cl)C1=O` (stereo not shown) [Compound Z16, 6-(2-(2-benzyl-3-chloro-7-oxo-2,4,5,7-tetrahydro-6H-pyrazolo[3,4-c]pyridine-6-yl)propoxy)nicotinonitrile] was 2950 nM; that for `CC(C(F)F)N1CCc2c(C(F)(F)F)nn(Cc3c(F)cccc3F)c2C1=O` (stereo not shown) [Compound Z17, 1-(2,6-difluorobenzyl)-6-(1,1-difluoropropan-2-yl)-3-(trifluoromethyl)-1,4,5,6-tetrahydro-7H-pyrazolo[3,4-c]pyridin-7-one] was 1820 nM. Turning to `CC(C(F)F)N1CCc2c(nn(Cc3ccc(F)cc3F)c2Cl)C1=O` (stereo not shown) [Compound Z18, 3-chloro-2-(2,4-difluorobenzyl)-6-(1,1-difluoropropan-2-yl)-2,4,5,6-tetrahydro-7H-pyrazolo[3,4-c]pyridin-7-one], the IC50 stood at 194 nM. On the same count and under the same terms, the value for `CC(C(F)F)N1CCc2c(nn(Cc3ccccc3F)c2Cl)C1=O` (stereo not shown) [Compound Z19, 3-chloro-6-(1,1-difluoropropan-2-yl)-2-(2-fluorobenzyl)-2,4,5,6-tetrahydro-7H-pyrazolo[3,4-c]pyridin-7-one] was 168 nM; that for `CCC(=O)N1CCc2c(nn(Cc3c(F)cccc3F)c2Cl)C1=O` [Compound Z20, 3-chloro-2-(2,6-difluorobenzyl)-6-propionyl-2,4,5,6-tetrahydro-7H-pyrazolo[3,4-c]pyridin-7-one] was 300 nM; that for `CC(C(F)F)N1CCc2c(nn(Cc3cc(F)c(F)cc3F)c2Cl)C1=O` (stereo not shown) [Compound Z21, 3-chloro-6-(1,1-difluoropropan-2-yl)-2-(2,4,5-trifluorobenzyl)-2,4,5,6-tetrahydro-7H-pyrazolo[3,4-c]pyridin-7-one] was 534 nM. The same measure, in the same setting: as for `CC(C(F)F)N1CCc2c(nn(Cc3c(F)cc(F)cc3F)c2Cl)C1=O` (stereo not shown) [Compound Z22, 3-chloro-6-(1,1-difluoropropan-2-yl)-2-(2,4,6-trifluorobenzyl)-2,4,5,6-tetrahydro-7H-pyrazolo[3,4-c]pyridin-7-one], the figure is 222 nM; as for `O=C1c2nn(Cc3c(F)cccc3F)c(Cl)c2CCN1C1CCOCC1` [Compound Z23, 3-chloro-2-(2,6-difluorobenzyl)-6-(tetrahydro-2H-pyran-4-yl)-2,4,5,6-tetrahydro-7H-pyrazolo[3,4-c]pyridin-7-one], 311 nM; as for `CC(C(F)F)N1CCc2c(nn(Cc3c(F)cccc3F)c2Br)C1=O` (stereo not shown) [Compound Z24, 3-bromo-2-(2,6-difluorobenzyl)-6-(1,1-difluoropropan-2-yl)-2,4,5,6-tetrahydro-7H-pyrazolo[3,4-c]pyridin-7-one], 48.9 nM. For `CC1(C)CC(N2CCc3c(nn(Cc4c(F)cccc4F)c3Cl)C2=O)CCO1` (stereo not shown) [Compound Z25, 3-chloro-2-(2,6-difluorobenzyl)-6-(2,2-dimethyltetrahydro-2H-pyran-4-yl)-2,4,5,6-tetrahydro-7H-pyrazolo[3,4-c]pyridin-7-one], the IC50 came out at 464 nM.

On to `CC(=O)N1CCc2c(nn(Cc3c(F)cccc3F)c2Cl)C1=O` [Compound Z26, 6-acetyl-3-chloro-2-(2,6-difluorobenzyl)-2,4,5,6-tetrahydro-7H-pyrazolo[3,4-c]pyridin-7-one], for which the IC50 stood at 361 nM.

The next experiment has as its target RIPK1 (Homo sapiens (Human), UniProt Q13546). As to the kind of experiment: Inhibitory activity against RIPK1 enzyme (33P-ATP, MBP substrate). It counts as biochemical. As to conditions: 36 nM RIPK1, 0.33 mg/ml MBP, 155 μM ATP, 2 hours, room temperature. As to the method:
as §1
The compound to be tested was dissolved in DMSO to prepare a 10 mM stock solution, diluted 3.16 times with DMSO into a series of concentration gradients, and then MOPS pH 7.0 buffer solution was used to dilute 50 times to prepare a working solution, and mixed well with 36 nM RIPK1 (final concentration), 0.33 mg/ml substrate MBP. Afterwards, 10 mM magnesium ions and 155 μM phosphorus 33 isotope-labeled ATP were added to react, The final concentration of DMSO was 2%. After the reaction was proceeded at room temperature for 2 hours, phosphoric acid was added to terminate. The final reaction system was processed and detected using a liquid scintillation counter. After the test results are subtracted from the blank control and compared with the reading value of the control group to convert to the activity percentage, which was plotted as a curve with the final concentration of the corresponding compound, and four-parameter fitting was used to obtain the IC50 of the compound that inhibits RIPK1 enzyme activity.
As for `O=C1c2nn(Cc3ccccc3)c(Cl)c2CCN1CC(F)F` [Compound Z1, 2-benzyl-3-chloro-6-(2,2-difluoroethyl)-2,4,5,6-tetrahydro-7H-pyrazolo[3,4-c]pyridine-7-one], the midpoint of inhibition, the IC50, lay at 65 nM. Compound `O=C1c2nn(Cc3ccccc3F)c(Cl)c2CCN1CC(F)F` [Compound Z2, 3-chloro-6-(2,2-difluoroethyl)-2-(2-fluorobenzyl)-2,4,5,6-tetrahydro-7H-pyrazolo[3,4-c]pyridin-7-one] displayed an IC50 of 30 nM. Still for that read-out and setting: as for `O=C1c2nn(Cc3c(F)cccc3F)c(Cl)c2CCN1CC(F)F` [Compound Z3, 3-chloro-2-(2,6-difluorobenzyl)-6-(2,2-difluoroethyl)-2,4,5,6-tetrahydro-7H-pyrazolo[3,4-c]pyridin-7-one], the figure is 48 nM; as for `O=C1c2nn(Cc3ccccc3)c(Cl)c2CCCN1CC(F)F` [Compound Z42], 184 nM.
